{"source": "paper PMC3690700", "about": "(Journal of nuclear medicine : official publication, Society …, 2008)", "key": {"[1]": {"assay": "Single i.v. dose of tariquidar in humans", "assay_type": "in vivo", "conditions": "single i.v. dose of 2 mg/kg, from Cmax"}, "P-gp at the BBB [2]": {"system": "P-gp at the BBB"}, "P-gp [3]": {"system": "P-gp", "conditions": "read-out: half-maximum inhibition constant (IC50); substrate transport by P-gp in vitro; cited from earlier work"}, "[4]": {"conditions": "humans, ref personal communication Dr. U. Elben, Aväant Pharmaceuticals; cited from earlier work"}, "[5]": {"conditions": "humans, single i.v. dose of 2 mg/kg, cited from earlier work"}, "P-gp [6]": {"system": "P-gp", "conditions": "mice, P-gp substrate loperamide, conventional biodistribution; cited from earlier work"}, "P-gp at the BBB [7]": {"system": "P-gp at the BBB", "assay": "in vivo", "conditions": "Wistar Unilever, rat"}, "Metabolism of": {"assay": "Metabolism of", "conditions": "tariquidar 15 mg/kg i.v."}, "[8]": {"conditions": "2T4K model, tariquidar 15 mg/kg i.v. 2 h before PET scan (n=5)"}, "[9]": {"conditions": "2T4K model, with vs without tariquidar 15 mg/kg i.v."}}, "note": "Where “and” joins values, the source holds several entries; their conditions need not be identical. Equal values may be shown once. Marks after values point to notes of the source that are not given here.", "data": [{"smiles": "COc1cc2c(cc1OC)CN(CCc1ccc(NC(=O)c3cc(OC)c(OC)cc3NC(=O)c3cnc4ccccc4c3)cc1)CC2", "note": "[tariquidar]", "values": [{"measurement": "unbound concentration", "setting": "[1]", "result": "about 0.012 μM"}, {"measurement": "Increase of K1 after tariquidar, 1T2K model", "setting": "P-gp at the BBB [2]; 1T2K model, tariquidar treatment", "result": "+632%"}, {"measurement": "DV of (R)-11C-verapamil with tariquidar", "setting": "P-gp at the BBB [2]; [8]", "result": "3.68±0.81 mL·mL^−1 and 3.68±0.81 (3) mL·mL^−1"}, {"measurement": "K1 of (R)-11C-verapamil with tariquidar", "setting": "P-gp at the BBB [2]; [8]", "result": "0.58±0.20 (9) mL·mL^−1·min^−1"}, {"measurement": "k2 of (R)-11C-verapamil with tariquidar", "setting": "P-gp at the BBB [2]; [8]", "result": "0.27±0.07 (43) min^−1"}, {"measurement": "k3 of (R)-11C-verapamil with tariquidar", "setting": "P-gp at the BBB [2]; [8]", "result": "0.37±0.17 (66) min^−1"}, {"measurement": "k4 of (R)-11C-verapamil with tariquidar", "setting": "P-gp at the BBB [2]; [8]", "result": "0.66±0.49 (55) min^−1"}, {"measurement": "Relative change of k2", "setting": "P-gp at the BBB [2]; [9]", "result": "−23", "unit": "%"}, {"measurement": "Relative change of k3", "setting": "P-gp at the BBB [2]; [9]", "result": "+27%"}, {"measurement": "Relative change of k4", "setting": "P-gp at the BBB [2]; [9]", "result": "−9", "unit": "%"}, {"measurement": "DV (Logan) of (R)-11C-verapamil with tariquidar", "setting": "P-gp at the BBB [2]; Logan analysis, tariquidar 15 mg/kg i.v. 2 h before PET scan (n=5)", "result": "3.53±0.79 (1) mL·mL^−1"}, {"measurement": "Relative change of DV (Logan)", "setting": "P-gp at the BBB [2]; Logan analysis, with vs without tariquidar 15 mg/kg i.v.", "result": "+1,007^† %"}, {"measurement": "Emax", "setting": "P-gp at the BBB [2]; maximum effect (DV) of dose-response fit, estimate±asymptotic standard error", "result": "4.5±3.8"}, {"measurement": "Time of peak uptake of activity in brain after tariquidar injection", "setting": "P-gp at the BBB [2]; scan 2, 0-90 min after tariquidar 15 mg/kg i.v.", "result": "32 ± 5", "unit": "min"}, {"measurement": "Brain uptake of activity after tariquidar vs baseline PET scans", "setting": "P-gp at the BBB [2]; tariquidar 15 mg/kg", "result": "about 12 fold"}, {"measurement": "Increase of DV of (R)-11C-verapamil after tariquidar vs baseline", "setting": "P-gp at the BBB [2]; tariquidar 15 mg/kg i.v., rat brain", "result": 12, "unit": "fold"}, {"measurement": "IC50", "setting": "P-gp [3]", "result": "40 nM and ~40 nM"}, {"measurement": "bound to plasma proteins", "setting": "[4]", "result": 99.5, "unit": "%"}, {"measurement": "Tolerability", "setting": "[5]", "result": "well tolerated"}, {"measurement": "Cmax", "setting": "[5]; read-out: maximum plasma concentrations (Cmax)", "result": "~2300", "unit": "nM"}, {"measurement": "ED50", "setting": "P-gp [6]", "result": 5.6, "unit": "mg/kg"}, {"measurement": "ED50 at 2 h", "setting": "P-gp at the BBB [7]", "result": "8.4 ± 9.5", "unit": "mg/kg"}, {"measurement": "Effect of tariquidar administration on metabolism of (R)-11C-verapamil", "setting": "Metabolism of", "result": "essentially left unaffected"}]}]}
